Data as given in ChEMBL document CHEMBL4316639, “Clavukoellians A-F, Highly Rearranged Nardosinane Sesquiterpenoids with Antiangiogenic Activity from Clavularia koellikeri” (2019).
The source made the active and inactive calls. The rule behind the calls is not given here.

Legend:
[1] = tested on: HUVEC; assay: Antiangiogenic activity in HUVEC assessed as inhibition of cell migration incubated for 6 to 24 hrs by wound healing assay; assay type: functional, cell-based; conditions: Homo sapiens
[2] = tested on: HUVEC; assay: Antiangiogenic activity in HUVEC assessed as inhibition of cell migration at 2.5 uM incubated for 6 to 24 hrs by wound healing assay; assay type: functional, cell-based; conditions: Homo sapiens
[3] = tested on: OE19; assay: Antiproliferative activity in human OE19 cells assessed as inhibition of cell proliferation by Cell-titer-Glo method; assay type: functional
[4] = tested on: MOLM-13; assay: Antiproliferative activity in human MOLM13 cells assessed as inhibition of cell proliferation by Cell-titer-Glo method; assay type: functional
[5] = tested on: MV4-11; assay: Antiproliferative activity in human MV4-11 cells assessed as inhibition of cell proliferation by Cell-titer-Glo method; assay type: functional
[6] = Antiproliferative activity in human OE21 cells assessed as inhibition of cell proliferation by Cell-titer-Glo method; assay type: functional
[7] = tested on: KYSE-520 cell line; assay: Antiproliferative activity in human KYSE520 cells assessed as inhibition of cell proliferation by Cell-titer-Glo method; assay type: functional

| GI50 [4] [µM] | GI50 [5] [µM] | Structure (SMILES) | Activity [1] | Activity [2] | GI50 [3] [µM] | GI50 [6] [µM] | GI50 [7] [µM] |
| --- | --- | --- | --- | --- | --- | --- | --- |
|  |  | C/C1=C/[C@@]2(C)C(=CCC[C@@H]2C)CC[C@H](O)[C@H]1O | Dose-dependent effect | Active |  |  |  |
| 6.4 to 8.6 | 6.4 to 8.6 | C[C@@H]1C(=O)O[C@]23C=CC(=O)[C@H]1[C@]2(C)[C@@H](C)CC[C@H]3O |  |  | 6.4 to 8.6 | 6.4 to 8.6 | 6.4 to 8.6 |
|  |  | CC1=C([C@@]2(C)C3=CC(=O)O[C@@H]3CC[C@@H]2C)C(=O)NC1=O | Dose-dependent effect | Active |  |  |  |
